# Measurements reported in ChEMBL document CHEMBL5375956, “Discovery of Pyrazolo[1,5-a]pyrimidine Derivative as a Novel and Selective ALKBH5 Inhibitor for the Treatment of AML” (J Med Chem, 2023).
# Calls of active or inactive are those of the source. No cut-off for these calls is given here.
# Assays:
# [1] = Toxicity in nude mouse xenografted with human MV4-11 cells assessed as kidney damage at 10 to 40 mg/kg, ip treated every day for 14 days by H and E staining based analysis; format: organism-based; conditions: in vivo, 336 h, dose 10-40 mg/kg, time 14 day
# MV4-11 [2] = assay: Induction of apoptosis in human MV4-11 cells assessed as late apoptosis cells at 5 uM incubated for 48 hrs by Annexin V-FITC/PI staining based flow cytometry (reference value: 7.17 %); format: functional
# MV4-11 [3] = assay: Induction of apoptosis in human MV4-11 cells assessed as necrotic cells at 5 uM incubated for 48 hrs by Annexin V-FITC/PI staining based flow cytometry (reference value: 1.81 %); format: functional
# MV4-11 [4] = assay: Downregulation of TACC3 mRNA level in human MV4-11 cells at 5 to 10 uM incubated for 48 hrs by qRT-PCR analysis; format: functional, cell-based; conditions: dose 5-10 µM
# [5] = Apparent volume of distribution during terminal phase in Sprague-Dawley rat at 2 mg/kg, iv measured for 1 to 1440 mins by LC-MS/MS analysis; format: ADME, organism-based; conditions: in vivo, time 1-1440 min
# HUVEC = assay: Antiproliferative activity against HUVEC cells assessed as inhibition of cell proliferation incubated for 72 hrs by Cell Titer Luminescence assay; format: functional, cell-based; conditions: Homo sapiens
# [6] = Cmax in Sprague-Dawley rat at 2 mg/kg, iv measured for 1 to 1440 mins by LC-MS/MS analysis; format: ADME, organism-based; conditions: in vivo
# MOLM-13 [7] = assay: Downregulation of TACC3 mRNA level in human MOLM-13 cells at 5 to 10 uM incubated for 48 hrs by qRT-PCR analysis; format: functional, cell-based; conditions: dose 5-10 µM
# MV4-11 [8] = assay: Downregulation of c-Myc mRNA level in human MV4-11 cells at 5 to 10 uM incubated for 48 hrs by qRT-PCR analysis; format: functional, cell-based; conditions: dose 5-10 µM
# [9] = Apparent volume of distribution during terminal phase in Sprague-Dawley rat at 10 mg/kg, po measured for 1 to 1440 mins by LC-MS/MS analysis; format: ADME, organism-based; conditions: in vivo, time 1-1440 min, read-out: Vz/F
# RNA demethylase ALKBH5 [10] = target: T1, RNA demethylase ALKBH5 (Homo sapiens, UniProt Q6P6C2); assay: Inhibition of ALKBH5 (66 to 292 residues)(unknown origin) expressed in Escherichia coli BL21(DE3) using 5'-ATTGTCA(m6A)CAGCAGA-FAM-3' as substrate incubated for 30 mins by FP assay
# Target sequence in this assay (Q6P6C2 whole entry, the tested form may be a part): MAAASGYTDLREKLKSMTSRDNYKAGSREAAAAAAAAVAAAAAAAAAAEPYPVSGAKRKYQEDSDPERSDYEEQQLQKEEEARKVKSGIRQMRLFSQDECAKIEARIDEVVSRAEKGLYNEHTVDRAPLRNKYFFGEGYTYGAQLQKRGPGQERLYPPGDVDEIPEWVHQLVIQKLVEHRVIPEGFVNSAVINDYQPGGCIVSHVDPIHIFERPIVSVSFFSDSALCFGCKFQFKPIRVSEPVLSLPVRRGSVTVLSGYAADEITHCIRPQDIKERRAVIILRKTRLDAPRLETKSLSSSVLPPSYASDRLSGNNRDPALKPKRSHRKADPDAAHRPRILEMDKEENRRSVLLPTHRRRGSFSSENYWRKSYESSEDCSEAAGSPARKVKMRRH
# [11] = Tmax in Sprague-Dawley rat at 10 mg/kg, po measured for 1 to 1440 mins by LC-MS/MS analysis; format: ADME, organism-based; conditions: in vivo, time 1-1440 min
# [12] = target: Alpha-ketoglutarate-dependent dioxygenase FTO (Homo sapiens, UniProt Q9C0B1); assay: Inhibition of FTO (32 to 505 residues)(unknown origin) expressed in Escherichia coli BL21(DE3) by FP assay
# [13] = Toxicity in nude mouse xenografted with human MV4-11 cells assessed as lung weight change at 10 to 40 mg/kg, ip treated every day for 14 days; format: organism-based; conditions: in vivo, 336 h, dose 10-40 mg/kg, time 14 day
# RNA demethylase ALKBH5 [14] = target: T1, RNA demethylase ALKBH5; assay: Binding affinity to NT-647-NHS fluorescent dye-labeled wild-type ALKBH5 (66 to 292 residues)(unknown origin) expressed in Escherichia coli BL21(DE3) using m6A-ssDNA as substrate assessed as dissociation constant incubated for 15 mins by MST assay
# Target sequence in this assay (Q6P6C2 whole entry, the tested form may be a part): as above
# [15] = AUC (0 to infinity) in Sprague-Dawley rat at 10 mg/kg, po measured for 1 to 1440 mins by LC-MS/MS analysis; format: ADME, organism-based; conditions: in vivo
# [16] = Oral bioavailability in Sprague-Dawley rat at 10 mg/kg measured for 1 to 1440 mins by LC-MS/MS analysis; format: ADME, organism-based; conditions: in vivo, time 1-1440 min
# RNA demethylase ALKBH5 [17] = target: RNA demethylase ALKBH5 (Homo sapiens, UniProt Q6P6C2, R130A); assay: Binding affinity to NT-647-NHS fluorescent dye-labeled ALKBH5 R130A mutant (unknown origin) expressed in Escherichia coli BL21(DE3) using m6A-ssDNA as substrate assessed as dissociation constant incubated for 15 mins by MST assay
# RNA demethylase ALKBH5 [18] = target: T1, RNA demethylase ALKBH5; assay: Inhibition of ALKBH5 (66 to 292 residues)(unknown origin) expressed in Escherichia coli BL21(DE3) using 5'-ATTGTCA(m6A)CAGCAGA-FAM-3' as substrate incubated for 30 mins in presence of 20 uM of 2-OG by FP based competitive binding assay
# Target sequence in this assay (Q6P6C2 whole entry, the tested form may be a part): as above
# MOLM-13 [19] = assay: Induction of apoptosis in human MOLM-13 cells assessed as necrotic cells at 10 uM incubated for 48 hrs by Annexin V-FITC/PI staining based flow cytometry (reference value: 1.00 %); format: functional
# [20] = MRT in Sprague-Dawley rat at 2 mg/kg, iv measured for 1 to 1440 mins by LC-MS/MS analysis; format: ADME, organism-based; conditions: in vivo, time 1-1440 min
# [21] = MRT in Sprague-Dawley rat at 10 mg/kg, po measured for 1 to 1440 mins by LC-MS/MS analysis; format: ADME, organism-based; conditions: in vivo, time 1-1440 min
# MOLM-13 [22] = assay: Downregulation of TACC3 level in human MOLM-13 cells upto 10 uM incubated for 48 hrs by Western blot analysis; format: functional, cell-based
# RNA demethylase ALKBH5 [23] = target: RNA demethylase ALKBH5 (Homo sapiens, UniProt Q6P6C2, R277A/Y139A); assay: Binding affinity to NT-647-NHS fluorescent dye-labeled ALKBH5 Y139A/R277A mutant (unknown origin) expressed in Escherichia coli BL21(DE3) using m6A-ssDNA as substrate assessed as dissociation constant incubated for 15 mins by MST assay
# RNA demethylase ALKBH5 [24] = target: T1, RNA demethylase ALKBH5; assay: Inhibition of ALKBH5 (66 to 292 residues)(unknown origin) expressed in Escherichia coli BL21(DE3) using 5'-TAGACATTGCCATTCTCGATAGG(m6A)-TCCGGTCAAACCTAGACGAATTCCA-3' as substrate upto 100 uM incubated for 2 hrs in presence of 2-OG by restriction endonuclease digestion assay
# Target sequence in this assay (Q6P6C2 2-394 limits assumed): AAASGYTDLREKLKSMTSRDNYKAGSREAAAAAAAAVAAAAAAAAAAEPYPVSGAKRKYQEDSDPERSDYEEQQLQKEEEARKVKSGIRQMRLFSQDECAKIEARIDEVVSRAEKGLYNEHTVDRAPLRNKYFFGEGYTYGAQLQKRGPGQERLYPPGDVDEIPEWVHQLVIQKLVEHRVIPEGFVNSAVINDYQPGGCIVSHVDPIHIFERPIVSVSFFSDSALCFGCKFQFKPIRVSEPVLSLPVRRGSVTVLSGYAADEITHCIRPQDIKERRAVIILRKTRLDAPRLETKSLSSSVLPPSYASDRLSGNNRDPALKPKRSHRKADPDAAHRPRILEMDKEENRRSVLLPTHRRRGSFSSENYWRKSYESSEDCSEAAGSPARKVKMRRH
# MV4-11 [25] = assay: Induction of apoptosis in human MV4-11 cells assessed as early apoptosis cells at 5 uM incubated for 48 hrs by Annexin V-FITC/PI staining based flow cytometry (reference value: 1.24 %); format: functional
# [26] = Toxicity in nude mouse xenografted with human MV4-11 cells assessed as spleen damage at 10 to 40 mg/kg, ip treated every day for 14 days by H and E staining based analysis; format: organism-based; conditions: in vivo, 336 h, dose 10-40 mg/kg, time 14 day
# RNA demethylase ALKBH5 [27] = target: T1, RNA demethylase ALKBH5; assay: Inhibition of ALKBH5 (66 to 292 residues)(unknown origin) expressed in Escherichia coli BL21(DE3) using 5'-ATTGTCA(m6A)CAGCAGA-FAM-3' as substrate incubated for 30 mins in presence of 2 uM of 2-OG by FP based competitive binding assay
# Target sequence in this assay (Q6P6C2 whole entry, the tested form may be a part): as the sequence (Q6P6C2 whole entry, the tested form may be a part) above
# MV4-11 [28] = assay: Induction of cell cycle arrest at […] phase in human MV4-11 cells at 20 uM incubated for 48 hrs by […]PI staining based flow cytometry; format: functional
# MOLM-13 [29] = assay: Downregulation of c-Myc mRNA level in human MOLM-13 cells at 5 to 10 uM incubated for 48 hrs by qRT-PCR analysis; format: functional, cell-based; conditions: dose 5-10 µM
# RNA demethylase ALKBH5 [30] = target: T1, RNA demethylase ALKBH5; assay: Inhibition of ALKBH5 in human MOLM-13 cells assessed as increase in m6A mRNA methylation level at 20 uM incubated for 48 hrs by LC-MS/MS analysis; format: cell-based
# Target sequence in this assay (Q6P6C2 2-394 limits assumed): as the sequence (Q6P6C2 2-394 limits assumed) above
# Chain of RNA demethylase ALKBH5 (Homo sapiens, UniProt Q6P6C2, R130A) (Q6P6C2 2-394 R130A limits assumed): as the sequence (Q6P6C2 2-394 limits assumed) above, with R129A counted along it
# Chain of Alpha-ketoglutarate-dependent dioxygenase FTO (Q9C0B1 whole entry, the tested form may be a part): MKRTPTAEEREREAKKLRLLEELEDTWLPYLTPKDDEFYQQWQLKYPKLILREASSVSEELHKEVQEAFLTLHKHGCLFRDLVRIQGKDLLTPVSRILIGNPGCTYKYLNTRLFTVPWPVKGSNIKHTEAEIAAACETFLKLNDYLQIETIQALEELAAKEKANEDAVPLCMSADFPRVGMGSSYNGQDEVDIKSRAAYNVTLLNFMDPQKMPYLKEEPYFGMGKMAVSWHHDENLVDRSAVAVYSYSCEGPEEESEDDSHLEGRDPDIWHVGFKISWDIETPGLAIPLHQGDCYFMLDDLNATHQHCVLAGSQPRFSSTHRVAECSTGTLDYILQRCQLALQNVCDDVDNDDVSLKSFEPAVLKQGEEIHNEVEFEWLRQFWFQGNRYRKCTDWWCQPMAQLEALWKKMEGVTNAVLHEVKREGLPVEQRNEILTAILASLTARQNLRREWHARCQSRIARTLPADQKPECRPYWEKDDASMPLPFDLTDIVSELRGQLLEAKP
# Chain of RNA demethylase ALKBH5 (Homo sapiens, UniProt Q6P6C2, R277A/Y139A) (Q6P6C2 2-394 Y139A/R277A limits assumed): as the sequence (Q6P6C2 2-394 limits assumed) above, with Y138A, R276A counted along it
smiles,measurement,setting,value
O=C(OCc1ccc(C(F)(F)F)cc1)c1ccc(-c2cc3ncc(C(=O)c4c(O)ccc([N+](=O)[O-])c4O)cn3n2)cc1,Activity,[1],Non-Toxic
same,Activity,MV4-11 [2],36%
same,Activity,MV4-11 [3],3.62%
same,Activity,MV4-11 [4],Active
same,Vz/F,[5],263.6 mL/kg
same,IC50,HUVEC,165 µM
same,Cmax,[6],13400 ng/mL
same,Activity,MOLM-13 [7],Active
same,Activity,MV4-11 [8],Active
same,Vd/F,[9],6.18 L/kg
same,IC50,RNA demethylase ALKBH5 [10],2970 nM
same,Tmax,[11],30 min
same,IC50,[12],> 200 µM
same,Activity,[13],Non-Toxic
same,Kd,RNA demethylase ALKBH5 [14],11.2 µM
same,AUC(0-inf),[15],5820 ng·h/mL
same,bioavailability,[16],17.3%
same,Kd,RNA demethylase ALKBH5 [17],373 µM
same,IC50,RNA demethylase ALKBH5 [18],4.32 µM
same,Activity,MOLM-13 [19],4.14%
same,MRT,[20],1.3 h
same,MRT,[21],2.8 h
same,Activity,MOLM-13 [22],Active
same,Kd,RNA demethylase ALKBH5 [23],15.8 µM
same,inhibition,RNA demethylase ALKBH5 [24],Active
same,Activity,MV4-11 [25],1.44%
same,Activity,[26],Non-Toxic
same,IC50,RNA demethylase ALKBH5 [27],4.64 µM
same,Activity,MV4-11 [28],Active
same,Activity,MOLM-13 [29],Active
same,inhibition,RNA demethylase ALKBH5 [30],Active
